The values that follow come from patent publication US20070054916A1, “Aryl nitrogen-containing bicyclic compounds and methods of use” (Amgen Inc., priority 2004, published 2007).

By IC50 is commonly meant the point on the concentration scale where inhibition reaches its midpoint.

The structures appear in SMILES notation.

This test relates to production of TNF by monocytes activated with bacterial lipopolysaccharide (LPS). Kind of test: Lipopolysaccharide-activated monocyte TNF production assay. The test is classed as cell-based. Particulars: Homo sapiens, read-out: IC50 values in the monocyte assay (LPS induced TNF release). Put shortly:
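Adherent human PBMC-derived monocytes (~70%) in DMEM/2% FCS were pre-incubated 60 min with nine two-fold compound dilutions, then stimulated with E. coli K532 LPS (added as 30 ng/ml solution) for 4 h at 37 °C. Supernatant TNF-α was measured by sandwich ELISA. IC50 was taken from a polynomial fit of TNF versus compound concentration.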
As to `COc1ccc(NC(=O)c2ccc(C)c(-c3ccc4nc(N)ncc4c3)c2)cc1C(F)(F)F` [Example 119, 3-(2-amino-6-quinazolinyl)-4-methyl-N-(4-(methyloxy)-3-(trifluoromethyl)phenyl)benzamide], the IC50 is not above 25 µM. Next, `COc1ccc(C(F)(F)F)cc1NC(=O)c1ccc(C)c(-c2ccc3nc(N)ncc3c2)c1` [Example 41, 3-(2-amino-6-quinazolinyl)-4-methyl-N-(2-(methyloxy)-5-(trifluoromethyl)phenyl)benzamide]: not above 25 µM; `CCN(CC)CCOc1cccnc1NC(=O)c1ccc(C)c(-c2ccc3nc(N)ncc3c2)c1` [Example 363, 3-(2-amino-6-quinazolinyl)-N-(3-((2-(diethylamino)ethyl)oxy)-2-pyridinyl)-4-methylbenzamide]: not above 25 µM.

On to `CNc1ncc2cc(-c3cc(C(=O)Nc4cccc(C(F)(F)F)c4)ccc3C)cnc2n1` [Example 167, 4-methyl-3-(2-(methylamino)pyrido[2,3-d]pyrimidin-6-yl)-N-(3-(trifluoromethyl)phenyl)benzamide], for which the IC50 is not above 25 µM.

On to `CCc1ccnc(NC(=O)c2ccc(C)c(-c3ccc4nc(N)ncc4c3)c2)c1` [Example 340, 3-(2-amino-6-quinazolinyl)-N-(4-ethyl-2-pyridinyl)-4-methylbenzamide], for which the IC50 is not above 25 µM. Next, `CN(C)CCCN(C)c1ccc(C(F)(F)F)cc1NC(=O)c1cc(-c2ccc3nc(N)ncc3c2)ccc1F` [Example 84, 5-(2-amino-6-quinazolinyl)-N-(2-((3-(dimethylamino)propyl)(methyl)amino)-5-(trifluoromethyl)phenyl)-2-fluorobenzamide]: not above 25 µM. For the compound `Cc1ccc(C(=O)Oc2c(F)c(F)c(F)c(F)c2F)cc1-c1ccc2nc(N)ncc2c1` [Example 423, Perfluorophenyl-3-(2-aminoquinazolin-6-yl)-4-methylbenzoate], the IC50 was not above 25 µM.

For `Nc1ncc2cc(-c3cc(NC(=O)c4cccc(C(F)(F)F)c4)ccc3C(F)(F)F)ccc2n1` [Example 196], the IC50 is not above 25 µM.

`COCCNc1ncc2cc(-c3cc(C(=O)Nc4cccc(C(F)(F)F)c4F)ccc3C)ccc2n1` [Example 24, N-(2-fluoro-3-(trifluoromethyl)phenyl)-4-methyl-3-(2-((2-(methyloxy)ethyl)amino)-6-quinazolinyl) benzamide]: the IC50 is not above 25 µM. Next, `Cc1ccc(C(=O)Nc2cccc(C(F)(F)F)c2C)cc1-c1ccc2nc(NCCN3CCCC3)ncc2c1` [Example 33, 4-methyl-N-(2-methyl-3-(trifluoromethyl)phenyl)-3-(2-((2-(1-pyrrolidinyl)ethyl)amino)-6-quinazolinyl) benzamide]: not above 25 µM; `Cc1ccc(C(=O)NCc2ccc(C(F)(F)F)nc2)cc1-c1ccc2nc(N)ncc2c1` [Example 357, 3-(2-amino-6-quinazolinyl)-4-methyl-N-((6-(trifluoromethyl)-3-pyridinyl)methyl) benzamide]: not above 25 µM. For `COc1c(Cl)cccc1NC(=O)c1ccc(C)c(-c2ccc3nc(N)ncc3c2)c1` [Example 284, 3-(2-amino-6-quinazolinyl)-N-(5-chloro-8-(methyloxy)-phenyl)-4-methylbenzamide] the value was not above 25 µM; for `Cc1ccc(C(=O)Nc2cc(C(F)(F)F)ccc2N2CCN(C)CC2)cc1-c1ccc2nc(N)ncc2c1` [Example 74, 3-(2-amino-6-quinazolinyl)-4-methyl-N-(2-(4-methyl-1-piperazinyl)-5-(trifluoromethyl)phenyl)benzamide], not above 25 µM. Next, `Cc1cccc(C)c1-c1ccc2nc(N)ncc2c1` [Example 535, 6-(2,6-dimethylphenyl)-2-quinazolinamine]: not above 25 µM; `CCN(CC)S(=O)(=O)c1ccc(OC)c(NC(=O)c2ccc(C)c(-c3ccc4nc(N)ncc4c3)c2)c1` [Example 231, 3-(2-amino-6-quinazolinyl)-N-(5-((diethylamino)sulfonyl)-2-(methyloxy)phenyl)-4-methylbenzamide]: not above 25 µM; `Cc1ccc(C(=O)Nc2cccc(C(F)(F)F)c2C)cc1-c1ccc2nc(NCCN3CCOCC3)ncc2c1` [Example 28, 4-methyl-N-(2-methyl-3-(trifluoromethyl)phenyl)-3-(2-((2-(4-morpholinyl)ethyl)amino)-6-quinazolinyl) benzamide]: not above 25 µM. As to `Cc1ccc(C(=O)Nc2ccc(C(C)(C)C)c(NC(=O)CN(C)C)c2)cc1-c1ccc2nc(N)ncc2c1` [Example 227, 3-(2-amino-6-quinazolinyl)-N-(4-(1,1-dimethylethyl)-3-((N,N-dimethylglycyl)amino)phenyl)-4-methylbenzamide], the IC50 is not above 25 µM.

Turning to `Cc1ccc(C(=O)Nc2cccc(C(F)(F)F)c2F)cc1-c1ccc2nc(NCCCN3CCOCC3)ncc2c1` [Example 23, N-(2-fluoro-3-(trifluoromethyl)phenyl)-4-methyl-3-(2-((3-(4-morpholinyl)propyl)amino)-6-quinazolinyl) benzamide], the IC50 is not above 25 µM. Next, `Cc1ccc(NC(=O)c2cc(C(F)(F)F)ccc2N(C)CCCN(C)C)cc1-c1ccc2nc(N)ncc2c1` [Example 431, N-(3-(2-amino-6-quinazolinyl)-4-methylphenyl)-2-((3-(dimethylamino)propyl)(methyl)amino)-5-(trifluoromethyl)benzamide]: not above 25 µM; `CN1CCN(c2ccc(C(F)(F)F)cc2NC(=O)c2cc(-c3ccc4nc(N)ncc4c3)ccc2F)CC1` [Example 421, 5-(2-amino-6-quinazolinyl)-2-fluoro-N-(2-(4-methyl-1-piperazinyl)-5-(trifluoromethyl)phenyl)benzamide]: not above 25 µM. Next, `CNc1ncc2cc(-c3cc(C(=O)Nc4ccc(NC(=O)NCCN5CCOCC5)c(C(F)(F)F)c4)ccc3C)cnc2n1` [Example 187, 4-methyl-3-(2-(methylamino)pyrido [2,3-d]pyrimidin-6-yl)-N-(4-((((2-(4-morpholinyl)ethyl)amino)carbonyl)amino)-3-(trifluoromethyl)phenyl)benzamide]: not above 25 µM; `COc1ccc(NC(=O)c2ccc(C)c(-c3ccc4nc(N)ncc4c3)c2)c(OC)n1` [Example 233, 3-(2-amino-6-quinazolinyl)-N-(2,6-bis(methyloxy)-3-pyridinyl)-4-methylbenzamide]: not above 25 µM; `Cc1ccc(C(=O)Nc2cc(C(C)(C)C)ccc2C(C)(C)C)cc1-c1ccc2nc(N)ncc2c1` [Example 78, 3-(2-amino-6-quinazolinyl)-N-(2,5-bis(1,1-dimethylethyl)phenyl)-4-methylbenzamide]: not above 25 µM. On to `Cc1ccc(C(=O)Nc2nc(C(C)(C)C)cs2)cc1-c1ccc2nc(N)ncc2c1` [Example 352, 3-(2-amino-6-quinazolinyl)-N-(4-(1,1-dimethylethyl)-1,3-thiazol-2-yl)-4-methylbenzamide], for which the IC50 was not above 25 µM. Regarding `Cc1ccc(C(=O)Nc2ccc3c(c2)N(C(=O)CN2CCOCC2)CC3(C)C)cc1-c1ccc2nc(N)ncc2c1` [Example 65, 3-(2-amino-6-quinazolinyl)-N-(3,3-dimethyl-1-(4-morpholinytacetyl)-2,3-dihydro-1H-indol-6-yl)-4-methylbenzamide], the IC50 was not above 25 µM. Turning to `Cc1ccc(C(=O)N[C@@H](C)c2nccs2)cc1-c1ccc2nc(N)ncc2c1` [Example 121, 3-(2-amino-6-quinazolinyl)-4-methyl-N-((1S)-1-(1,3-thiazol-2-yl)ethyl)benzamide], the IC50 was not above 25 µM. Next, `Cc1ccc(C(=O)Nc2ccc(F)cc2F)cc1-c1ccc2nc(N)ncc2c1` [Example 424, 3-(2-amino-6-quinazolinyl)-N-(2,4-difluorophenyl)-4-methylbenzamide]: not above 25 µM.

Regarding `CNc1ncc2cc(-c3cccc(C(=O)Nc4cccc(C(F)(F)F)c4)c3)ccc2n1` [Example 53, 3-(2-(methylamino)-6-quinazolinyl)-N-(3-(trifluoromethyl)phenyl)benzamide], the IC50 was not above 25 µM.

Take `CSc1ccc(C(F)(F)F)cc1NC(=O)c1ccc(C)c(-c2ccc3nc(N)ncc3c2)c1` [Example 146, 3-(2-amino-6-quinazolinyl)-4-methyl-N-(2-(methylsulfanyl)-5-(trifluoromethyl)phenyl)benzamide]: the IC50 is not above 25 µM. Next, `CNc1ncc2cc(-c3cc(C(=O)Nc4cc(C(F)(F)F)ccc4N(C)CCCN(C)C)ccc3C)cnc2n1` [Example 193, N-(2-((3-(dimethylamino)propyl)(methyl)amino)-5-(trifluoromethyl)phenyl)-4-methyl-3-(2-(methylamino)pyrido[2,3-d]pyrimidin-6-yl)benzamide]: not above 25 µM. With `Cc1ccc(C(=O)Nc2ncccc2OCCCN2CCCCC2)cc1-c1ccc2nc(N)ncc2c1` [Example 362, 3-(2-amino-6-quinazolinyl)-4-(methyl-N-(3-((3-1-piperidinyl)propyl)oxy)-2-pyridinyl)benzamide], the IC50 was not above 25 µM. Next, `CNc1ncc2cc(-c3cccc(NC(=O)c4cccc(C(F)(F)F)c4)c3C)cnc2n1` [Example 198, N-2-methyl-3-(2-(methylamino)pyrido[2,3-d]pyrimidin-6-yl)-N-(3-(trifluoromethyl)phenyl)benzamide]: not above 25 µM; `Cc1ccc(C(=O)Nc2cccc(C(F)(F)F)c2F)cc1-c1ccc2nc(N)ncc2c1` [Example 19, 3-(2-amino-6-quinazolinyl)-N-(2-fluoro-3-(trifluoromethyl)phenyl)-4-methylbenzamide]: not above 25 µM. Next, `COc1ccc(Cl)cc1NC(=O)c1ccc(C)c(-c2ccc3nc(N)ncc3c2)c1` [Example 143, 3-(2-amino-6-quinazolinyl)-N-(5-chloro-2-(methyloxy)phenyl)-4-methylbenzamide]: not above 25 µM; `CNc1ncc2cc(-c3cc(C(=O)Nc4cc(C(C)(C)C)ccc4OC)ccc3C)cnc2n1` [Example 186]: not above 25 µM. For `CCN(CC)CCNC(=O)Nc1ccc(NC(=O)c2ccc(C)c(-c3cnc4nc(NC)ncc4c3)c2)cc1C(F)(F)F` [Example 188] the value was not above 25 µM.
